Results as given in ChEMBL document CHEMBL1770065, “Discovery of a clinical candidate from the structurally unique dioxa-bicyclo[3.2.1]octane class of sodium-dependent glucose cotransporter 2 inhibitors” (J Med Chem, 2011).

Key:
[1] = Apparent intrinsic clearance in human hepatocytes assessed per million of cells; type: ADME, cell-based, Liver, Hepatocyte
Rattus norvegicus = test: Hepatic clearance in Sprague-Dawley rat at 2 mg/kg, iv; type: ADME, organism-based, Liver; design: dose 2 mg/kg, route intravenous; conditions: in vivo
[2] = Half life in Sprague-Dawley rat at 2 mg/kg, iv; type: ADME, organism-based; design: dose 2 mg/kg, route intravenous; conditions: in vivo
[3] = Lipophilicity, log D of the compound; type: physicochemical; conditions: octanol/water
[4] = Renal clearance in Sprague-Dawley rat at 2 mg/kg, iv; type: ADME, organism-based, Kidney; design: dose 2 mg/kg, route intravenous; conditions: in vivo
[5] = target: T1, Sodium/glucose cotransporter 2 (Homo sapiens, UniProt P31639); test: Inhibition of human SGLT2 expressed in CHO cells assessed as inhibition of methyl alpha-D-glucopyranoside uptake after 1 hr; type: cell-based
T1 sequence (P31639 whole entry): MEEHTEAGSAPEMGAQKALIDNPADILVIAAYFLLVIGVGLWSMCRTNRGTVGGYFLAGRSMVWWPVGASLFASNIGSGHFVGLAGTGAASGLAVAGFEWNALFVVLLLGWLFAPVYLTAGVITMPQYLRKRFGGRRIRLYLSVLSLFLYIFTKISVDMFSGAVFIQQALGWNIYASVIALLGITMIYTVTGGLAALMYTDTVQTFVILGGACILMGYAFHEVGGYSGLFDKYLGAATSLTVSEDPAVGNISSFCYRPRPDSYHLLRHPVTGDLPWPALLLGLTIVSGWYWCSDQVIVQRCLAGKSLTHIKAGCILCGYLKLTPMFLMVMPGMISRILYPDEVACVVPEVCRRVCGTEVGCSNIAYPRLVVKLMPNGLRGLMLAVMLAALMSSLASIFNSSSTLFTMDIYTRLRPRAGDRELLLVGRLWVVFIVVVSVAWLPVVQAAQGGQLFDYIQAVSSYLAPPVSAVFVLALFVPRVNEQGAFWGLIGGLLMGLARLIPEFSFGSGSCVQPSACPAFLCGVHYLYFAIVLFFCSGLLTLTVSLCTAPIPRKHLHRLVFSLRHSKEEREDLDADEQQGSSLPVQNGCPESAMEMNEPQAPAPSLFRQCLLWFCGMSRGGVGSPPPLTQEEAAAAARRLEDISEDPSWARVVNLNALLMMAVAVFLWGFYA

[6] = Apparent intrinsic clearance in human liver microsomes assessed per mg of protein; type: ADME, Microsome
[7] = target: T2, Sodium/glucose cotransporter 1 (Homo sapiens, UniProt P13866); test: Inhibition of human SGLT1 expressed in CHO cells assessed as inhibition of methyl alpha-D-glucopyranoside uptake after 1 hr; type: cell-based
T2 sequence (P13866 whole entry): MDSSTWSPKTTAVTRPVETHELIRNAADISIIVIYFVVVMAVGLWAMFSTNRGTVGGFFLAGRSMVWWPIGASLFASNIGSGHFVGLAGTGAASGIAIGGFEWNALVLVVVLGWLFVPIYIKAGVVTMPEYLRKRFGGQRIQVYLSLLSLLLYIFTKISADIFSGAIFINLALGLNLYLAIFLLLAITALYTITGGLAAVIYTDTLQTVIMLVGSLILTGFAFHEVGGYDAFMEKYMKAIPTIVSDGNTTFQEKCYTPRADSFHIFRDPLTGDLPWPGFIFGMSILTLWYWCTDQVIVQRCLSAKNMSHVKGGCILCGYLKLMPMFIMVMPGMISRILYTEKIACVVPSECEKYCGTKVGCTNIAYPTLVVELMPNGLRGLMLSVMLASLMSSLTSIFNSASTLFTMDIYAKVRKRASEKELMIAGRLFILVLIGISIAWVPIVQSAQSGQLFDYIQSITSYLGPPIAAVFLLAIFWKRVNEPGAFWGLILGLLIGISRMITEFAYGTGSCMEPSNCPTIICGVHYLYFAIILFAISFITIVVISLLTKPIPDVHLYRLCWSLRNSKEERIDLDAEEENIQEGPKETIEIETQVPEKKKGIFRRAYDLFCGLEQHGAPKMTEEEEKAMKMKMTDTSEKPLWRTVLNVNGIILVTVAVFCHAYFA

Plasma [8] = test: Fraction unbound in human plasma at 1000 ng/mL by equilibrium dialysis method; type: ADME, cell-free
Plasma [9] = test: Fraction unbound in rat plasma at 1000 ng/mL by equilibrium dialysis method; type: ADME, cell-free

| SMILES | hepatocyte CLint [1] [µL/min/1e6 cells] | CL (Rattus norvegicus) [mL/min/kg] | half-life [2] [min] | logD [3] | CL renal [4] [mL/min/kg] | IC50 [5] [nM] | microsomal CLint [6] [µL/min/mg] | IC50 [7] [nM] | Fu (Plasma [8]) [%] | Fu (Plasma [9]) [%] |
| --- | --- | --- | --- | --- | --- | --- | --- | --- | --- | --- |
| COc1ccc(Cc2cc([C@@H]3OC4(COC4)[C@@H](O)[C@H](O)[C@H]3O)ccc2C)cc1 | 44 | 20.5 | 114 | 3 | 1.8 | 6.98 | 12 | – | – | – |
| CCOc1ccc(Cc2cc([C@]34OC[C@](CO)(O3)[C@@H](O)[C@H](O)[C@@H]4O)ccc2Cl)cc1 | – | – | – | 3.8 | – | 89.9 | – | > 10000 | – | – |
| COc1ccc(Cc2cc([C@@H]3O[C@H](CO)[C@@H](O)[C@H](O)[C@H]3O)ccc2C)cc1 | 3.4 | – | – | 2.4 | – | – | < 8 | – | – | – |
| COc1ccc(Cc2cc([C@@H]3O[C@H](CO)[C@@H](O)[C@H](O)[C@H]3O)ccc2Cl)cc1 | < 2 | – | – | 3 | – | – | < 9 | – | – | – |
| COc1ccc(Cc2cc([C@]34OC[C@](CO)(O3)[C@@H](O)[C@H](O)[C@@H]4O)ccc2Cl)cc1 | 2.3 | – | – | 3.9 | – | 43.1 | 15 | > 10000 | – | – |
| CCc1ccc(Cc2cc([C@@H]3OC4(CNC4)[C@@H](O)[C@H](O)[C@H]3O)ccc2C)cc1 | < 2 | – | – | 3.2 | – | – | 32 | – | – | – |
| COc1ccc(Cc2cc([C@]34OC[C@](CO)(O3)[C@@H](O)[C@H](O)[C@H]4O)ccc2Cl)cc1 | 2 | – | 96 | 3.2 | – | 0.882 | 9.2 | – | – | – |
| CCOc1ccc(Cc2cc([C@]34OC[C@](CO)(O3)[C@@H](O)[C@H](O)[C@H]4O)ccc2C)cc1 | 2 | – | – | 3 | – | 1.11 | 8.9 | 958 | – | – |
| COc1ccc(Cc2cc([C@]34OC[C@](CO)(O3)[C@@H](O)[C@H](O)[C@H]4O)ccc2C)cc1 | 2.1 | – | – | 2.6 | – | 1.07 | < 8 | 506 | 20.6 | 18.6 |
